Measurements taken from paper PMC3323581, “Membrane Association of the PTEN Tumor Suppressor: Molecular Details of the Protein-Membrane Complex from SPR Binding Studies and Neutron Reflection” (PLoS ONE, 2012).
Read-outs that look alike come from different tables or passages of the source.

How the values were obtained:
Experiment in all cases: SPR equilibrium binding to sparsely-tethered bilayer (stBLM)
[1] = target: T1, wt PTEN (Homo sapiens, UniProt P60484); settings: for Kd: read-out: Kd (μM) / Component a
T1 construct: full-length, six-histidine tag at the C-terminus, expressed in Escherichia coli BL21 (DE3)
Source text: (§1) SPR equilibrium binding to sparsely-tethered bilayer (stBLM) on wt PTEN

[2] = target: T2, truncated PTEN (Homo sapiens, UniProt P60484, DEL286-309); settings: DOPC:PI(4,5)P2 97.8:2.2 bilayer, pH 7.0, room temperature
T2 construct: crystallization construct: residues 1-6, loop 286-309 and C-terminal tail 354-403 deleted; plasmid from N. R. Leslie; expressed in E. coli, His-tag purified
Source text: SPR equilibrium binding to sparsely-tethered bilayer (stBLM) on truncated PTEN

[3] = target: T3, wt PTEN (Homo sapiens, UniProt P60484, H93R); settings: DOPC:PI(4,5)P2 97.8:2.2 bilayer, pH 7.0, room temperature
T3 construct: full-length, six-histidine tag at the C-terminus, expressed in Escherichia coli BL21 (DE3)
Source text: as §1

[4] = target: T4, wt PTEN (Homo sapiens, UniProt P60484, C124S)
T4 construct: full-length, six-histidine tag at the C-terminus, expressed in Escherichia coli BL21 (DE3)
Source text: as §1

## CCCCCCCCCCCCCCCC(=O)OC[C@H](COP(=O)(O)O[C@@H]1[C@H](O)[C@H](O)[C@@H](OP(=O)(O)O)[C@H](OP(=O)(O)O)[C@H]1O)OC(=O)CCCCCCCCCCCCCCC [DPPI(4,5)P2]
[1]
  Kd: 1.9 ± 0.3 µM

## PI(4,5)P2
[2]
  Kd: 0.77 ± 0.07 µM
[3]
  Kd: 1.3 ± 0.2 µM
[4]; DOPC:PI(4,5)P2 97.8:2.2 bilayer, pH 7.0, room temperature
  Kd: 0.32 ± 0.03 µM
[1]; DOPC:PI(4,5)P2 97.8:2.2 bilayer (same Kd at 0.7 and 3.7 mol%), 100 mM NaCl, 10 mM HEPES, 1 mM EDTA, pH 7.0, room temperature, Kd as protein concentration at half saturation
  Kd: 0.4 ± 0.1 µM

## CCCCCCCCCCCCCCCC(=O)OC[C@H](COP(=O)(O)O[C@H]1[C@H](O)[C@@H](OP(=O)(O)O)[C@H](OP(=O)(O)O)[C@@H](OP(=O)(O)O)[C@H]1O)OC(=O)CCCCCCCCCCCCCCC [PI(3,4,5)P3]
[4]
  Kd: 0.12 ± 0.03 µM
[1]; DOPC:PI(3,4,5)P3 97.9:2.1 bilayer, pH 7.0, room temperature, unreliable (active enzyme likely converts the lipid during the measurement)
  Kd (μM) / Component a: 2.4 ± 0.2 µM
